Measured values from PubChem BioAssay (NCI).
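Assay format: 96-well plates, 48-hour exposure. Here, GI50 denotes the concentration required for 50% inhibition of growth. TGI is the concentration that stops growth completely.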

How the values were obtained:
Assay in all cases: NCI-60 cell line screen, 48 h
OVCAR-3 ovarian = test system: OVCAR-3 ovarian
OVCAR-4 ovarian = test system: OVCAR-4 ovarian
T-47D breast = test system: T-47D breast
NCI-H226 lung = test system: NCI-H226 lung
HL-60(TB) leukemia = test system: HL-60(TB) leukemia
XF 498 CNS = test system: XF 498 CNS
M19-MEL melanoma = test system: M19-MEL melanoma
DMS 114 small cell lung = test system: DMS 114 small cell lung
LXFL 529 NSCLC = test system: LXFL 529 NSCLC

Structure (SMILES)	TGI (OVCAR-3 ovarian)	TGI (OVCAR-4 ovarian)	TGI (T-47D breast)	TGI (NCI-H226 lung)	TGI (HL-60(TB) leukemia)	TGI (XF 498 CNS)	TGI (M19-MEL melanoma)	TGI (DMS 114 small cell lung)	TGI (LXFL 529 NSCLC)	GI50 (OVCAR-4 ovarian)	GI50 (T-47D breast)	GI50 (HL-60(TB) leukemia)
CN(C)CCNc1ccc2c(=O)n(CCN(C)C)c(=O)n3c4ccc(O)cc4c(=O)c1c23	1.29 µM	0.38 µM	0.717 µM	0.322 µM								
Cn1c(=O)c2c(nc3n(CC(O)CCl)c(=O)ccn23)n(C)c1=O (centres undefined)	> 100 µM	> 100 µM	> 100 µM	> 100 µM	> 100 µM							
COc1ccc2c(c1)C(=O)CC1c3cnccc3C(=O)N21 (centres undefined)	> 100 µM	> 100 µM	> 100 µM	> 100 µM								
C=CCC1(C#N)C(=S)NC2=C(C(=O)CC(C)(C)C2)C1c1ccccc1 (centres undefined)		88.9 µM	> 100 µM	> 100 µM	> 100 µM							
O=[N+]([O-])c1ccccc1OCCOc1ccccc1[N+](=O)[O-]	> 100 µM	> 100 µM	> 100 µM	> 100 µM	> 100 µM							
CNC(C)(C)Cc1ccc(Cl)cc1	> 100 µM	> 100 µM				> 100 µM	> 100 µM	> 100 µM	> 100 µM			
CC(=O)O[C@H]1CC(C)(C)C(=C=C/C(C)=C/C=C/C=C/C=C(C)/C=C2C=C(/C=C/[C@@]34O[C@]3(C)C[C@@H](O)CC4(C)C)C(=O)O/2)[C@](C)(O)C1	23.2 µM	> 100 µM	> 100 µM	4.88 µM	4.9 µM							
O=C(O)CC(Cc1ccccc1Cl)C(=O)O (centres undefined)	> 100 µM	> 100 µM	> 100 µM	> 100 µM								
CCC/C(Cl)=N\OC(=O)Nc1ccc(F)cc1	9.76 µM	30.8 µM	21.9 µM	43.4 µM	3.86 µM							
O=C(Nc1ccc(N2C(=O)CSC2c2ccccc2O)cc1)c1ccc(N2C(=O)CSC2c2ccccc2O)cc1 (centres undefined)	> 100 µM	> 100 µM	> 100 µM									
O=c1[nH]c(Nc2ccccc2)nc2c1ncn2CC(O)CSCCO (centres undefined)	> 100 µM	> 100 µM	> 100 µM	> 100 µM	> 100 µM							
O=c1[nH]cc(NCCCl)c(=O)[nH]1	> 100 µM	> 100 µM	> 100 µM	> 100 µM								
Oc1cc(Cc2ccccc2)c(Cc2ccccc2)cc1O	> 10 µM	> 10 µM	> 10 µM	> 10 µM	> 10 µM							
[N-]=[N+]=Nc1c(Cc2ccccc2)c(Cl)nc2ccccc12	38.4 µM	> 100 µM	> 100 µM	59.7 µM	56.6 µM							
COc1cc2c(c3c1c(=O)c1ccccc1n3C)C=CC1(CCCC1)O2	38.1 µM	25.8 µM		37.1 µM	26.1 µM							
COC(=O)C1=C(O)C(C(=O)OC)C2CC(=O)CC1C2(C)C (centres undefined)	> 100 µM	> 100 µM	> 100 µM	> 100 µM	> 100 µM							
CC(C)(C)c1ccc(OCCOc2ccc(C(C)(C)C)cc2N)c(N)c1	> 100 µM	> 100 µM	> 100 µM	> 100 µM	> 100 µM							

Structure (SMILES)	TGI (OVCAR-3 ovarian)	TGI (OVCAR-4 ovarian)	TGI (T-47D breast)	TGI (NCI-H226 lung)	TGI (HL-60(TB) leukemia)	TGI (XF 498 CNS)	TGI (M19-MEL melanoma)	TGI (DMS 114 small cell lung)	TGI (LXFL 529 NSCLC)	GI50 (OVCAR-4 ovarian)	GI50 (T-47D breast)	GI50 (HL-60(TB) leukemia)
O=C1c2cccc([N+](=O)[O-])c2C(=O)N1Cc1ccccc1	> 100 µM	> 100 µM	> 100 µM	> 100 µM	> 100 µM							
COc1ccc(N2CC(=O)N(C(=O)COc3ccc(OCC(=O)N4C(=O)CN(c5ccc(OC)cc5)C4=S)cc3)C2=S)cc1		> 100 µM		> 100 µM								
C=CCSC1=N/C(=C\c2ccc(Cl)cc2)C(=O)N1CC=C	> 100 µM	94.7 µM	63.5 µM		24.5 µM							
CCN(CCCOc1ccccc1)CCN(CC)CCCOc1ccccc1	31.9 µM	37.5 µM		46.8 µM	25.4 µM							
O=C(/C=C(/C=C/c1ccc2[nH]ccc2c1)OB(F)F)/C=C/c1ccc2[nH]ccc2c1		6.46 µM	> 100 µM		> 100 µM					0.726 µM	1.99 µM	1.88 µM
Cc1ccc2c(c1)-c1nc(N)c(C#N)c(-c3ccc(Cl)cc3)c1CCS2(=O)=O		> 100 µM	> 100 µM	> 100 µM	47 µM							
COc1cc2c(c(O)c1O)C(=O)C1CCC(=O)N1C2c1cccc2ccccc12 (centres undefined)	> 50 µM	> 50 µM	> 50 µM	> 50 µM	> 50 µM							
Cn1nc2ccc([N+](=O)[O-])c(Cn3nnc4ccccc43)c2n1	> 100 µM	> 100 µM	> 100 µM	> 100 µM	> 100 µM							
Cc1ccc(S(=O)(=O)NC(=O)Nc2nnc(S(N)(=O)=O)s2)cc1	> 100 µM	> 100 µM		> 100 µM	> 100 µM							
N#CN1C2CCC1CC(=O)C2	> 100 µM	> 100 µM	> 100 µM		> 100 µM							
c1ccc(/C(=N/Nc2nc3ccccc3s2)C2CCCCC2)nc1	7.6 µM	22.3 µM	15.5 µM	27.5 µM								
COC(=O)C1(NC(=O)C(CC(=O)OCc2ccccc2)NC(=O)OCc2ccccc2)CCCCCC1 (centres undefined)	> 100 µM	43.8 µM	> 100 µM	72.7 µM	51 µM							
C[C@@]1(O)C2CC3CC1(c1ccccc1)CC(/C3=N/O)/C2=N\O (some centres undefined)	> 100 µM	> 100 µM	> 100 µM	> 100 µM	> 100 µM							
Cc1cc(C)nc(NS(=O)(=O)c2ccc(NC(=O)c3c4ccccc4nc4ccccc34)cc2)n1	> 100 µM	> 100 µM		> 100 µM								
CN(C)CC(O)c1ccc(Cl)c2ccccc12 (centres undefined)	> 100 µM	> 100 µM	84.4 µM	> 57 µM	> 78 µM							
O=C(Nc1ccccc1F)c1cc2ccc(O)cc2oc1=Nc1cccc(F)c1	33.1 µM	53.6 µM	39.3 µM		27 µM							
CC(C)(C)c1ccccc1N1C(=O)c2ccc3c4c(ccc(c24)C1=O)N(c1ccccc1C(C)(C)C)C3=O	> 100 µM	> 100 µM										
